Data on 26 compounds can be found in US20180213779A1, “PESTICIDALLY ACTIVE HETEROCYCLIC DERIVATIVES WITH SULPHUR CONTAINING SUBSTITUENTS” (SYNGENTA PARTICIPATIONS AG, priority 2015, published 2018).

Data set [1] relates to Spodoptera littoralis (Egyptian Cotton Leaf Worm). As to the kind of experiment: Example B4: Activity against Spodoptera littoralis (sprayed cotton leaf discs). Conditions: foliar, 72 h, application rate of 200 ppm, L1 larvae, 3 days after infestation. In kind it is in vivo. On the procedure:
Example B4: Activity Against Spodoptera littoralis (Egyptian Cotton Leaf Worm)
Cotton leaf discs were placed on agar in 24-well microtiter plates and sprayed with aqueous test solutions prepared from 10′000 ppm DMSO stock solutions. After drying the leaf discs were infested with five L1 larvae. The samples were assessed for mortality, anti-feedant effect, and growth inhibition in comparison to untreated samples 3 days after infestation. Control of Spodoptera littoralis by a test sample is given when at least one of the categories mortality, anti-feedant effect, and growth inhibition is higher than the untreated sample.

Data set [2] deals with Diabrotica balteata (Corn Root Worm). As to the kind of experiment: Example B6: Activity against Diabrotica balteata (sprayed maize sprouts). Type of data set: in vivo. The conditions noted are these: 96 h, application rate of 200 ppm, L2 larvae, 4 days after infestation, read-out: effect in at least one of the two categories (mortality or growth inhibition). On the procedure: Example B6: Activity Against Diabrotica Balteata (Corn Root Worm)
Maize sprouts placed onto an agar layer in 24-well microtiter plates were treated with aqueous test solutions prepared from 10′000 ppm DMSO stock solutions by spraying. After drying, the plates were infested with L2 larvae (6 to 10 per well). The samples were assessed for mortality and growth inhibition in comparison to untreated samples 4 days after infestation.

Data set [3] deals with Plutella xylostella (Diamond-Back Moth). As to the kind of experiment: Example B3: Plutella xylostella larvicide, feeding/contact activity, preventative (artificial diet, 96-well). Conditions: 216 h, application rate of 500 ppm, mortality assessed 9 days after treatment. Type of data set: in vivo. On the procedure:
Example B3: Plutella xylostella (Diamond-Back Moth) larvicide, feeding/contact activity, preventative Artificial diet was dispensed into a 96-well microtiter plate and treated with aqueous test solutions prepared from 10′000 ppm DMSO stock solutions. Eggs were suspended above the treated diet and first instar larvae hatched onto the diet. Mortality was assessed 9 days after treatment.

In data set [4] the test system is Plutella xylostella (Diamond Back Moth). As to the kind of experiment: Example B11: Activity against Plutella xylostella (artificial diet, 24-well, L2 larvae). Conditions: 120 h, application rate of 200 ppm, 5 days after infestation, read-out: effect in at least one of the two categories (mortality or growth inhibition). Type of data set: in vivo. On the procedure: Example B11: Activity Against Plutella xylostella (Diamond Back Moth)
24-well microtiter plates with artificial diet were treated with aqueous test solutions prepared from 10′000 ppm DMSO stock solutions by pipetting. After drying, the plates were infested with L2 larvae (10 to 15 per well). The samples were assessed for mortality and growth inhibition in comparison to untreated samples 5 days after infestation.

In data set [5] the test system is Myzus persicae (Green Peach Aphid). As to the kind of experiment: Example B8: Activity against Myzus persicae (sprayed sunflower leaf discs). The conditions noted are these: foliar, 144 h, application rate of 200 ppm, mixed ages, 6 days after infestation. In kind it is in vivo. On the procedure:
Example B8: Activity Against Myzus persicae (Green Peach Aphid)
Sunflower leaf discs were placed onto agar in a 24-well microtiter plate and sprayed with aqueous test solutions prepared from 10′000 ppm DMSO stock solutions. After drying, the leaf discs were infested with an aphid population of mixed ages. The samples were assessed for mortality 6 days after infestation.

The test system of data set [6] is Euschistus heros (Neotropical Brown Stink Bug). As to the kind of experiment: Example B7: Activity against Euschistus heros (sprayed soybean leaves). Type of data set: in vivo. Conditions: 120 h, application rate of 200 ppm, N2 nymphs, 5 days after infestation, read-out: effect in at least one of the two categories (mortality or growth inhibition). As to the method:
Example B7: Activity Against Euschistus heros (Neotropical Brown Stink Bug)
Soybean leaves on agar in 24-well microtiter plates were sprayed with aqueous test solutions prepared from 10′000 ppm DMSO stock solutions. After drying the leaves were infested with N2 nymphs. The samples were assessed for mortality and growth inhibition in comparison to untreated samples 5 days after infestation.

For data set [7], the system named is Spodoptera littoralis (Egyptian Cotton Leaf Worm). As to the kind of experiment: Example B5: Activity against Spodoptera littoralis (systemic, lettuce grown on treated agar). Type of data set: in vivo. The conditions noted are these: 144 h, test rate of 12.5 ppm, 6 days after infestation, uptake by lettuce roots, read-out: effect in at least one of the three categories (mortality, anti-feeding, or growth inhibition). From the text: Example B5: Activity Against Spodoptera littoralis (Egyptian Cotton Leaf Worm)
Test compounds were applied by pipette from 10′000 ppm DMSO stock solutions into 24-well plates and mixed with agar. Lettuce seeds were placed onto the agar and the multi well plate was closed by another plate which contained also agar. After 7 days the compound was absorbed by the roots and the lettuce grew into the lid plate. The lettuce leaves were then cut off into the lid plate. Spodoptera eggs were pipetted through a plastic stencil onto a humid gel blotting paper and the lid plate was closed with it. The samples were assessed for mortality, anti-feedant effect and growth inhibition in comparison to untreated samples 6 days after infestation.

Each structure is given as a SMILES string.

Turning to `CCS(=O)(=O)c1cc(C(F)(F)F)cnc1-c1cn(-c2ccc(C(F)(F)F)cc2)nn1` [Compound P2, 3-(ethylsulfonyl)-5-(trifluoromethyl)-2-(1-(4-(trifluoromethyl)phenyl)-1H-1,2,3-triazol-4-yl)pyridine], the melting point lay in the range of 212 to 213 °C.
In turn, `CCS(=O)(=O)c1cc(C(F)(F)F)cnc1-c1nnc(-c2ccc(C(F)(F)F)cc2)o1` [Compound P3] returned a percent control (mortality, anti-feedant effect or growth inhibition) at 200 ppm in data set [1] of at least 80%.
In the case of `CCS(=O)(=O)c1cc(C(F)(F)F)cnc1-c1nnc(-c2cc(C(F)(F)F)ccn2)o1` [Compound P5, 2-[3-ethylsulfonyl-5-(trifluoromethyl)-2-pyridyl]-5-[4-(trifluoromethyl)-2-pyridyl]-1,3,4-oxadiazole], the effect (mortality or growth inhibition) at 200 ppm in data set [2] was at least 80%.
With `CCS(=O)(=O)c1cc(C(F)(F)F)ccc1-c1nnc(-c2ccc(C(F)(F)F)nc2)o1` [Compound P7], the pest or weed control at 500 ppm in data set [3] is at least 70%.
On the same count and under the same terms, in the case of `CCS(=O)(=O)c1cc(C(F)(F)F)cnc1-c1noc(-c2ccc(C(F)(F)F)cc2)c1C` [Compound P8] it was at least 70%.
Turning to `CCSc1cc(C(F)(F)F)cnc1-c1cc(-c2ccc(C(F)(F)F)cc2)on1` [Compound P11, 3-(3-ethylsulfanyl-5-(trifluoromethyl)pyridin-2-yl)-5-(4-(trifluoromethyl)phenyl)-isoxazole], the melting point was in the range of 145 to 146 °C.
Take `CCS(=O)(=O)c1cc(-c2ccc(Cl)cc2)cnc1-c1cn(-c2cccc(C(F)(F)F)c2)nn1` [Compound P13, 5-(4-chlorophenyl)-3-ethylsulfonyl-2-[1-[3-(trifluoromethyl)phenyl]triazol-4-yl]pyridine]: in data set [4], the percent effect (mortality or growth inhibition) at 200 ppm is at least 80%. The pest or weed control at 500 ppm in data set [3] is at least 70%. In data set [1], this compound gave a percent control (mortality, anti-feedant effect or growth inhibition) at 200 ppm of at least 80%. The effect (mortality or growth inhibition) at 200 ppm in data set [2] is at least 80%.
In data set [5], `CCSc1cccnc1-c1cn(-c2cccc(C(F)(F)F)c2)nn1` [Compound P14] returned a mortality at 200 ppm of at least 80%. Besides, the percent effect (mortality or growth inhibition) at 200 ppm in data set [6] and in data set [4] was at least 80% in each case. This compound gave a pest or weed control at 500 ppm in data set [3] of at least 70%. Besides, in data set [2], the effect (mortality or growth inhibition) at 200 ppm is at least 80%.
Compound `CCS(=O)(=O)c1cccnc1-c1cn(-c2cccc(C(F)(F)F)c2)nn1` [Compound P15] showed a mortality at 200 ppm in data set [5] of at least 80%. Besides, the percent effect (mortality or growth inhibition) at 200 ppm in data set [6] and in data set [4] was at least 80% each time. The percent effect (mortality, anti-feeding or growth inhibition) at 12.5 ppm in data set [7] is at least 80%. This compound registered a pest or weed control at 500 ppm in data set [3] of at least 70%. The same compound gave a percent control (mortality, anti-feedant effect or growth inhibition) at 200 ppm in data set [1] of at least 80%. The effect (mortality or growth inhibition) at 200 ppm in data set [2] was at least 80%.
As to `CCSc1cccnc1-c1cn(-c2ccc(C(F)(F)F)cc2)nn1` [Compound P16, 3-ethylsulfanyl-2-[1-[4-(trifluoromethyl)phenyl]triazol-4-yl]pyridine], in data set [4], the percent effect (mortality or growth inhibition) at 200 ppm is at least 80%. This compound also registered a pest or weed control at 500 ppm in data set [3] of at least 70%.
`CCS(=O)(=O)c1cccnc1-c1cn(-c2ccc(C(F)(F)F)cc2)nn1` [Compound P17, 3-ethylsulfonyl-2-[1-[4-(trifluoromethyl)phenyl]triazol-4-yl]pyridine]: the percent effect (mortality or growth inhibition) at 200 ppm in data set [6] and in data set [4] was at least 80% each time. For the same compound, in data set [3], the pest or weed control at 500 ppm was at least 70%. In addition, the percent control (mortality, anti-feedant effect or growth inhibition) at 200 ppm in data set [1] was at least 80%. The effect (mortality or growth inhibition) at 200 ppm in data set [2] was at least 80%.
In turn, `CCSc1cc(C(F)(F)F)cnc1-c1cn(-c2cncc(C(F)(F)F)c2)nn1` [Compound P21] displayed a pest or weed control at 500 ppm in data set [3] of at least 70%. For the same compound, the effect (mortality or growth inhibition) at 200 ppm in data set [2] was at least 80%.
As for `CCS(=O)(=O)c1cc(C(F)(F)F)cnc1-c1cn(-c2ccc(C(F)(F)F)nc2)nn1` [Compound P22], the percent effect (mortality or growth inhibition) at 200 ppm in data set [4] is at least 80%. For the same compound, in data set [3], the pest or weed control at 500 ppm is at least 70%. Besides, the percent control (mortality, anti-feedant effect or growth inhibition) at 200 ppm in data set [1] was at least 80%. Besides, the effect (mortality or growth inhibition) at 200 ppm in data set [2] was at least 80%.
With `CCS(=O)(=O)c1cc(C(F)(F)F)cnc1-c1cn(-c2cncc(C(F)(F)F)c2)nn1` [Compound P23], in data set [7], the percent effect (mortality, anti-feeding or growth inhibition) at 12.5 ppm is at least 80%. This compound showed a pest or weed control at 500 ppm in data set [3] of at least 70%. In addition, in data set [1], the percent control (mortality, anti-feedant effect or growth inhibition) at 200 ppm is at least 80%. Besides, the effect (mortality or growth inhibition) at 200 ppm in data set [2] was at least 80%.
As for `CCSc1cccnc1-c1cn(-c2ccc(C(F)(F)F)nc2)nn1` [Compound P24], in data set [3], the pest or weed control at 500 ppm is at least 70%. Moreover, the effect (mortality or growth inhibition) at 200 ppm in data set [2] was at least 80%.
As for `CCSc1ccc(Cl)nc1-c1cc(-c2cc(C(F)(F)F)ccn2)n(C)n1` [Compound P28], the melting point was 138 to 140 °C.
With `CCS(=O)(=O)c1ccc(Cl)nc1-c1cc(-c2cc(C(F)(F)F)ccn2)n(C)n1` [Compound P29], the melting point lay in the range of 255 to 257 °C.
In turn, `CCS(=O)(=O)c1cccnc1-c1cc(-c2cc(C(F)(F)F)ccn2)n(C)n1` [Compound P30] gave a melting point of 171 to 173 °C.
For `CCS(=O)(=O)c1ccc(-n2cncn2)nc1-c1cc(-c2cc(C(F)(F)F)ccn2)n(C)n1` [Compound P31], the melting point is 238 to 240 °C.
Same read-out and setting: in the case of `CCSc1ccc(Cl)nc1-c1cc(-c2ccc(C(F)(F)F)nc2)n(C)n1` [Compound P32, 6-chloro-3-ethylsulfanyl-2-[1-methyl-5-[6-(trifluoromethyl)-3-pyridyl]pyrazol-3-yl]pyridine] it was 136 to 138 °C; in that of `CCS(=O)(=O)c1ccc(Cl)nc1-c1cc(-c2ccc(C(F)(F)F)nc2)n(C)n1` [Compound P33, 6-chloro-3-ethylsulfonyl-2-[1-methyl-5-[6-(trifluoromethyl)-3-pyridyl]pyrazol-3-yl]pyridine], 198 to 200 °C; in that of `CCS(=O)(=O)c1cccnc1-c1cc(-c2ccc(C(F)(F)F)nc2)n(C)n1` [Compound P34, 3-ethylsulfonyl-2-[1-methyl-5-[6-(trifluoromethyl)-3-pyridyl]pyrazol-3-yl]pyridine], 160 to 162 °C.
As for `CCS(=O)(=O)c1ccc(-n2cncn2)nc1-c1cc(-c2ccc(C(F)(F)F)nc2)n(C)n1` [Compound P35, 3-ethylsulfonyl-2-[1-methyl-5-[6-(trifluoromethyl)-3-pyridyl]pyrazol-3-yl]-6-(1,2,4-triazol-1-yl)pyridine], the melting point fell in the range of 175 to 177 °C.
On the same count and under the same terms, in the case of `CCSc1ccc(Cl)nc1-c1cc(-c2cncc(C(F)(F)F)c2)n(C)n1` [Compound P36] it was 125 to 126 °C; in that of `CCS(=O)(=O)c1ccc(Cl)nc1-c1cc(-c2cncc(C(F)(F)F)c2)n(C)n1` [Compound P37], 152 to 153 °C.
`CCS(=O)(=O)c1ccc(-n2cncn2)nc1-c1cc(-c2cncc(C(F)(F)F)c2)n(C)n1` [Compound P39] registered a melting point of 235 to 237 °C.
